Measured values: EP1724268A1, “COMPOUND HAVING TGF-BETA INHIBITORY ACTIVITY AND PHARMACEUTICAL COMPOSITION CONTAINING SAME” (KIRIN BEER KABUSHIKI KAISHA, priority 2004, dated 2005)
Read-outs that look alike come from different tables or passages of the source.

Tested on: TGFβ signal
Assay: TGFβ signal inhibitory activity, (SBE)4-Luc reporter in A549 cells (Test Examples 1A and 1B)
Format: cell-based, human
Settings: Homo sapiens
Outline: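 Stable A549 line carrying (SBE)4-Luc Smad3-binding reporter treated with compound plus TGFβ-1 (2 ng/ml) for 4 hr; luciferase read by chemiluminescence. Percent inhibition relative to TGFβ-only and untreated cells, tested at 3 µM and 10 µM, some also at 1 µM.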

[1] = A549, 3 µM, compounds of Reference Examples (Test Example 1B), read-out: TGFβ inhibition rate, %
[2] = A549, 10 µM, compounds of Reference Examples (Test Example 1B), read-out: TGFβ inhibition rate, %
[3] = A549, test compound 3 µM, Reference Examples, Table 1B, read-out: TGFβ inhibition rate, %
[4] = A549, test compound 10 µM, Reference Examples, Table 1B, read-out: TGFβ inhibition rate, %
[5] = A549, test compound 3 µM, TGFβ-1 2 ng/ml, 4 hr, Table 1A, read-out: TGFβ inhibition rate, %
[6] = A549, test compound 10 µM, TGFβ-1 2 ng/ml, 4 hr, Table 1A, read-out: TGFβ inhibition rate, %

Structure (SMILES) | inhibition at 3 µM [1] | inhibition at 10 µM [2] | inhibition at 3 µM [5] | inhibition at 10 µM [6] | further results
COc1cc2nccc(Oc3ccc(C)nc3-c3ccncc3)c2cc1OC [Compound r263] | 82% | 99% |  |  | 
COc1cc2nccc(Oc3ccc4c(c3)COC(=O)N4)c2cc1OC [Compound r23, 6-[(6,7-Dimethoxy-4-quinolyl)oxy]-1,4-dihydro-2H-3,1-benzoxazin-2-one] |  |  |  |  | inhibition at 3 µM [3]: 56%; inhibition at 10 µM [4]: 91%
COc1cc2nccc(Oc3cc(C)c(C)cc3C(C)=O)c2cc1OC [Compound r38] |  |  |  |  | inhibition at 3 µM [3]: 98%; inhibition at 10 µM [4]: 100%
COc1cc2nccc(Oc3c(C)cc4ncccc4c3Cl)c2cc1OC [r302] | 30% | 90% |  |  | 
COc1cc2c(Oc3cc(C)c(C)nc3-c3ccc(C)cn3)ccnc2cc1OCCCO [Compound r460] | 97% |  |  |  | 
COc1cc2nccc(Oc3cc(C)c(C)cc3/C(C)=N/Oc3ccccc3)c2cc1OC [r199] | 14% | 59% |  |  | 
COc1cc2nccc(Oc3ccc(C)nc3-c3ccsc3)c2cc1OC [r255] | 93% | 100% |  |  | 
Cc1cc(Oc2ccnc3cc(O)ccc23)c(-c2ccccn2)nc1C [Compound 140, 4-(5,6-Dimethyl-[2,2']bipyridinyl-3-yloxy)-quinolin-7-ol] |  |  | 99% | 100% | 
COc1cc2nccc(Oc3cc(C)c(C)nc3-c3ccccn3)c2cc1F [Compound 110, 3-(6-Fluoro-7-methoxy-quinolin-4-yloxy)-5,6-dimethyl-[2,2']bipyridine] |  |  | 100% | 100% | 
Cc1cc(Oc2ccnc3cc(OCCO)ccc23)c(-c2ccccn2)nc1C [Compound 143, 2-[4-(5,6-Dimethyl-[2,2']bipyridinyl-3-ylox)-quinolin-7-yloxy]-ethanol] |  |  | 100% | 100% | 
COc1cc2nccc(Oc3ccc(C)nc3C(OC(C)=O)c3cccc(C)n3)c2cc1OC (stereo not shown) [Compound r219] | 20% | 67% |  |  | 
COc1cc2c(Oc3cc(C)c(C)nc3-c3ccccc3)ccnc2cc1OCC(CO)CO [Compound r336] | 100% |  |  |  | 
COc1cc2nccc(Oc3cc4cccnc4nc3-c3ccccc3)c2cc1O [Compound 124, 7-Methoxy-4-(2-phenyl-[1,8]naphthyridin-3-yloxy)-quinolin-6-ol] |  |  | 99% | 100% | 
COc1cc2nccc(Oc3cc4ccncc4nc3-c3ccccc3)c2cc1OC [Compound 98, 3-(6,7-Dimethoxy-quinolin-4-yloxy)-2-phenyl-[1,7]naphthyridine] |  |  | 94% | 100% | 
CCC(=O)c1cc(I)ccc1Oc1ccnc2cc(OC)c(OC)cc12 [Compound r47] |  |  |  |  | inhibition at 3 µM [3]: 45%; inhibition at 10 µM [4]: 98%
COc1cc2nccc(Oc3ccccc3C(=O)OCc3ccccc3)c2cc1OC [r103] |  |  |  |  | inhibition at 3 µM [3]: 20%; inhibition at 10 µM [4]: 84%
COc1cc2nccc(Oc3cc(C)c(C)nc3-c3cccnc3C)c2cc1OC [Compound 44, 3-(6,7-Dimethoxy-quinolin-4-yloxy)-5,6,2'-trimethyl-[2,3']bipyridine] |  |  | 82% | 99% | 
Cc1sc2ncnc(Oc3cc4cccnc4nc3-c3ccccc3)c2c1C [Compound 78, 3-(5,6-Dimethyl-thieno[2,3-d]pyrimidin-4-yloxy)-2-phenyl-[1,8] naphthyridine] |  |  | 75% | 99% | 
COc1cc2c(Oc3ccc(C)cc3C(=O)c3ccccc3)ccnc2cc1OCC(O)Cn1ccnc1 (stereo not shown) [r160] |  |  |  |  | inhibition at 3 µM [3]: 98%; inhibition at 10 µM [4]: 100%

Structure (SMILES) | inhibition at 3 µM [1] | inhibition at 10 µM [2] | inhibition at 3 µM [5] | inhibition at 10 µM [6] | further results
COc1cc2nccc(Oc3cc(C)c(Cl)cc3C(C)=O)c2cc1OC [Compound r37] |  |  |  |  | inhibition at 3 µM [3]: 94%; inhibition at 10 µM [4]: 100%
COc1cc2nccc(Oc3cc(C)c(C)cc3-c3cccnc3)c2cc1OC [r170] | 76% | 100% |  |  | 
COc1cc2nccc(Oc3ccc(C)cc3C(=O)c3ccccc3)c2cc1OC [r72] |  |  |  |  | inhibition at 3 µM (A549, read-out: TGFβ inhibition rate, %): 98%
COc1cc2nccc(Oc3ccc(C)cc3C(=O)c3ccc(C(C)(C)C)cc3)c2cc1OC [r73] |  |  |  |  | inhibition at 3 µM [3]: 24%; inhibition at 10 µM [4]: 81%
COc1ccc2c(Oc3cc4cccnc4nc3-c3ccccc3)ccnc2c1 [Compound 56, 3-(7-Methoxy-quinolin-4-yloxy)-2-phenyl-[1,8]naphthyridine] |  |  | 99% | 100% | 
CCc1ccc(Oc2ccnc3ccc(OCc4ccccc4)cc23)c(-c2ccccn2)n1 [Compound 183, 3-(6-Benzyloxy-quinolin-4-yloxy)-6-ethyl-[2,2']bipyridine] |  |  | 100% | 100% | 
COc1cc2c(Oc3cc4ccccc4nc3C(C)=O)ccnc2cc1OCCN1CCOCC1 [Compound r391] | 99% | 100% |  |  | 
Cc1cc(Oc2ccnc3ccccc23)c(-c2cccnc2)nc1C [Compound 43, 5,6-Dimethyl-3-(quinolin-4-yloxy)-[2,3']bipyridine] |  |  | 84% |  | inhibition at 1 µM (A549, test compound 1 µM, TGFβ-1 2 ng/ml, 4 hr, Table 1A, read-out: TGFβ inhibition rate, %): 45%
Cc1cc(Oc2ccnc3cc(-c4cccnc4)ccc23)c(-c2ccccn2)nc1C [Compound 18, 5,6-Dimethyl-3-(7-pyridin-3-yl-quinolin-4-yloxy)-[2,2']bipyridine] |  |  | 95% | 100% | 
COc1cc2nccc(Oc3ccc(C)nc3C(C)=O)c2cc1OC [Compound r117, 1-{[3-(6,7-Dimethoxy-4-quinolyl)oxy]-6-methyl-2-pyridyl}-1-ethanone] |  |  |  |  | inhibition at 3 µM [3]: 84%; inhibition at 10 µM [4]: 98%
COc1cc2c(Oc3cc4cccnc4nc3-c3ccccc3)ccnc2cc1C(N)=O [Compound 147, 6-Methoxy-4-(2-phenyl-[1,8]naphthyridin-3-yloxy)-quinoline-7-carboxylic acid amide] |  |  | 34% | 77% | 
Cc1cc(Oc2ccnc3ccncc23)c(-c2ccccn2)nc1C [Compound 31, 4-(5,6-Dimethyl-[2,2']bipyridin-3-yloxy)-[1,6]naphthyridine] |  |  | 85% | 99% | 
COc1cc2c(Oc3cc4ccccc4nc3C)ccnc2cc1O [Compound r352, 6-Methoxy-4-(2-methyl-quinolin-3-yloxy)-quinolin-7-ol] | 14% | 68% |  |  | 
Cc1ccc(Oc2ccnc3ccc(OCCCN4CCN(c5ccccn5)CC4)cc23)c(-c2ncccn2)n1 [Compound 218, 4-(6-Methyl-2-pyrimidin-2-yl-pyridin-3-yloxy)-6-[3-(4-pyridin-2-yl-piperazin-1-yl)-propoxy]-quinoline] |  |  | 84% | 100% | 
CCc1ccc(Oc2ccnc3cc(OC)c(OC)cc23)c(C(C)=O)c1 [r172] | 82% | 99% |  |  | 
COc1cc2nccc(Oc3cc(C)c(C)cc3C(C)=NO)c2cc1OC [Compound r195] | 99% | 100% |  |  | 
COc1cc2nccc(Oc3ccc(C)nc3-c3ccccc3C(C)=O)c2cc1OC [Compound r225] | 39% | 78% |  |  | 
COc1cc2c(Oc3cc4ccccc4nc3C(C)=O)ccnc2cc1OCCCO [Compound r456] | 99% | 100% |  |  | 
Cc1cc(Oc2ccnc3ccc(Cl)c(Cl)c23)c(-c2ccccn2)nc1C [Compound 130, 3-(5,6-Dichloro-quinolin-4-yloxy)-5,6-dimethyl-[2,2']bipyridine] |  |  | 100% | 100% | 
